Assay results published in EP1655287A1, “PROBE FOR DISEASES WITH AMYLOID ACCUMULATION, AMYLOID-STAINING AGENT, REMEDY AND PREVENTIVE FOR DISEASES WITH AMYLOID ACCUMULATION AND DIAGNOSTIC PROBE AND STAINING AGENT FOR NEUROFIBRILLARY CHANGE” (priority 2003, dated 2005).
Read-outs that look alike come from different tables or passages of the source.

Experiments:
[1] = biological target: T1, senile plaques (Homo sapiens, UniProt P05067); assay: Staining of senile plaques and diffuse plaques in brain sections, compared with thioflavin S, BSB or anti-Aβ antibody 6F/3D immunostaining; assay type: binding, patient with Alzheimer's disease; details: 100 µM compound in 50% ethanol; for staining properties in sections of the brain of a patient with Alzheimer's disease: compared with thioflavin S (and BSB) on adjacent sections; for staining properties compared with immunostaining of anti-Aβ antibody 6F/3D: adjacent sections immunostained with 6F/3D
T1 construct: The former has, as the main component, amyloid β-protein (Aβ protein) taking β-sheet structures; from tissue; host or cells: paraffin-embedded temporal lobe or hippocampus sections of an Alzheimer's disease patient's brain (Fukushimura Hospital)
T1 sequence (P05067 672-713 limits assumed): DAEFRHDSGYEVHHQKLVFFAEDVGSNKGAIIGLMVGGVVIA
Source text: The following explanation is made about testing of staining properties of the compounds of the present invention on brain sections of an Alzheimer's disease patient. • (1) Temporal lobe or hippocampus specimens of the brain of a patient who had been definitely diagnosed pathologically as Alzheimer's disease and of a normal aged individual were used. These specimens were provided from Fukushimura Hospital, our joint research facility, with the consent to their use for research purpose received from the bereaved family of the patient (BF Research Laboratories Institutional Ethics Board Permission No. RS-99-02). • (2) The brain tissues embedded in paraffin were sliced 6 or 8 µm thick, extended on slides, and dried. The paraffin-embedded brain sections were deparaffined by washing sequentially with xylene (10 minutes, twice), 100% ethanol (15 minutes, twice), 95% ethanol (15 minutes, twice), and a stream of water (10 minutes). • (3) Pre-treatment for staining with compounds of the present invention involved treating the sections for eliminating self-fluorescence due to lipofuscin. First, the deparaffined sections were immersed into a 10% formalin solution for 60 minutes and washed with PBS for 5 minutes, followed by immersion into a 0.25% solution of KMnO4 for 90 minutes. After washing twice with PBS for 2 minutes each, the sections were immersed into a solution of 0.1% K2S2O5/oxalic acid for about 30 seconds each, and then washed three times with PBS for 2 minutes each. • (4) About 150 µl of a 100 µM solution of a compound of the present invention dissolved in 50% ethanol was added dropwise onto the sections and allowed the reaction to be carried out for 10 minutes. The sections were dipped into tap water five times, and then 50% ethanol three to five times, followed by immediate classification. After that, the sections were immersed into PBS for 60 minutes, enclosed with Fluor Save Reagent (Calbiochem), and examined under a fluorescent microscope (Nikon, Eclips E800). Pictures were taken using a digital camera (Plaroid PDMCII).
Immunostaining was carried out as follows. • (a) Procedures for immunostaining amyloid β-protein: • (1) After the sections were deparaffined, the sections were washed twice in distilled water for 2 minutes each, and tissues were marked with an Immunopen. About 150 µl of formic acid was added dropwise and allowed to stand at room temperature for 5 minutes. The sections were washed with tap water for 5 minutes and immersed into cold PBS-Tween 20 for 2 minutes, and then about 150 µl of a 0.05% trypsin solution was added dropwise and allowed the reaction to be carried out at 37°C for 15 minutes. • (2) In an ice bath, the sections were washed twice with cold PBS-Tween 20 for 5 minutes each, and two drops of blocking serum were added and allowed the reaction to be carried out at 37°C for 15 minutes. Excess water was removed, and about 150 µl of 6F/3D, an antibody specific to amyloid β-protein (DAKO; diluted 1:50) was added dropwise and allowed the reaction to be carried out at 37°C for 1 hour. • (3) Further, after washing five times with cold PBS-Tween 20 for 2 minutes each, two drops of a solution of goat antimouse IgG (H+L) conjugated to biotin were added and allowed the reaction to be carried out at 37°C for 1 hour. After that, the sections were washed three times with cold PBS-Tween 20 for 2 minutes each, and two drops of ABS solution (a streptavidin-biotin-peroxidase complex solution) were added and allowed to stand for 30 minutes. The sections were again washed three times with cold PBS-Tween 20 for 2 minutes each, and about 150 µl of DAB solution (prepared by dissolving 10 mg of DAB in 20 ml of 0.05 mol/l Tris-HCl buffer and adding 100 µl of 3% hydrogen peroxide immediately before use) were added and allowed the color to be developed sufficiently. Then, the sections were washed with distilled water for 1 minute to stop the reaction, enclosed, and examined under a microscope.

[2] = mouse, in vivo, iv, 2 min
Procedure: (§1) (B) Testing of blood-brain barrier permeability Measurements of blood-brain barrier permeability were made according to the following procedures. Compounds of the present invention were intravenously administered to mice to determine their in vivo blood-brain barrier permeability. • (1) Mice utilized Slc:ICR weighing 30-40 g (7 weeks old, n=3) (Nippon SLC). • (2) A test compound was dissolved in a mixture of 1N HCl, polyethylene glycol 400, and DMSO, or in DMSO or ethyl alcohol, and then diluted with purified water, and injected via tail vein. Two minutes after administration, the mice, under ether anesthesia, were subjected to taking blood from the abdominal aorta with a heparin-treated syringe and removing the brain. • (3) After taking blood, blood samples were centrifuged at 14,000 rpm at 4°C for 10 minutes, and their supernatants were kept at -80°C as plasma sample. The brain (including cerebellum) was kept at -80°C after its removal. • (4) The plasma sample, when used, was thawed, diluted with purified water, and then applied to a conditioned C18 solid-phase extraction cartridge (bond elute C18, 200 mg, Varian), followed by elution with methyl alcohol. Alternatively, after thawing the plasma sample, a diethyl ether/cyclohexane mixture was added, and the mixture was shaken, and then centrifuged to separate an oil layer. • (5) The brain material, when used, was subjected to measuring its wet weight with the brain remaining frozen, and saline was added to the brain for homogenization. The homogenate was centrifuged for 10 minutes, and the supernatant was applied to a conditioned C18 solid-phase extraction cartridge and eluted with methyl alcohol. Alternatively, after measuring the wet weight of the frozen brain, a diethyl ether/cyclohexane mixture was added to the brain, and the mixture was homogenized, shaken, and then centrifuged to separate an oil layer. • (6) The absorbance and fluorescence were detected employing high performance liquid chromatography. • (7) For each of the plasma and brain, the content of the test compound in the plasma or brain (%ID (injected dose)/ml or g) was determined, relative to the administered dose.

[3] = Acute toxicity testing, intravenous administration; assay type: in vivo; details: male Crj:CD1 mice, via tail vein, observed up to 7 days; for MTD at 168 h: mouse, in vivo, iv, read-out: Maximum Tolerated Dose (mg/kg, intravenous administration)
Procedure: The following explanation is made of testing methods for properties of the compounds of the present invention. (A) Testing of acute toxicity Acute toxicity of the inventive compounds was determined employing mice by intravenous administration. Male Crj:CD1 mice were used and divided into groups of 4 mice, with an average weight of each group of 31-32 g. […] Up to 7 days after administration, observations were made.

[4] = system: Amyloid β-protein; assay: Screening of the degree of β-structure recognition (fluorescence, in the presence of Congo red); assay type: binding; details: test compound 5 µM, amyloid β-protein 5 µM, Congo red 0.1 µM, phosphate buffer pH 7.4
[5] = Blood-brain barrier permeability after intravenous administration; details: for Plasma: mice, content in plasma two minutes after intravenous administration; for tissue uptake at 2 min: mouse, brain, iv
Procedure: as §1

Row | Molecule | staining properties in sections of the brain of a patient with Alzheimer's disease [1] | Brain [2] | Plasma [2] | Maximum Tolerated Dose (mg/kg, intravenous administration) [3] | Degree of β-structure recognition (%) [4] [%] | Plasma [5] | tissue uptake at 2 min [5] [%ID/g] | staining properties compared with immunostaining of anti-Aβ antibody 6F/3D [1] | MTD at 168 h [3] [mg/kg]
1 | 2-[2-(5-dimethylaminothiazol-2-yl)ethenyl]benzoxazole [BF-215] | stains senile plaques | 8.8 %ID/g or ml | 2.5 %ID/g or ml | ≧ 10 mg/kg | 82.6 |  |  |  | 
2 | CN(C)c1ncc(/C=C/c2nc3ccccc3o2)s1 [BF-197, 2-[2-(2-dimethylaminothiazol-5-yl)ethenyl]benzoxazole] | mainly stains senile plaques |  |  |  | 71.8 | 1.9 %ID/g or ml | 15 | stains senile plaques | ≥ 10
3 | Cc1nc(/C=C/c2cnc(N(C)C)s2)oc1C [BF-214, 2-(dimethylamino)-5-[2-(4,5-dimethyloxazol-2-yl)ethenyl]thiazole] | stains senile plaques |  |  |  | 58.9 | 2.1 %ID/g or ml | 8.8 |  | ≥ 10
4 | CN(C)c1ncc(/C=C/c2ccc3ccccc3n2)s1 [BF-222, 2-[2-(2-dimethylaminothiazol-5-yl)ethenyl]quinoline] |  |  |  |  | 62.3 | 2.0 %ID/g or ml | 13 |  | ≥ 10
5 | CN(C)c1ncc(/C=C/c2nc3ccc(OCCF)cc3o2)s1 [BF-227, 2-[2-(2-dimethylaminothiazol-5-yl)ethenyl]-6-(2-fluoroethyloxy)benzoxazole] | mainly stains senile plaques |  |  |  | 70.2 | 2.1 %ID/g or ml | 7.9 | stains senile plaques (Fig. 16, wedge-shaped arrowheads) and diffuse plaques | ≥ 10
6 | CN(C)c1ncc(/C=C/C=C/c2nc3ccccc3[nH]2)s1 [BF-231, 2-[4-(2-dimethylaminothiazol-5-yl)-1,3-butadienyl]benzoimidazole] | stains senile plaques |  |  | ≧ 10 mg/kg | 47.2 |  |  |  | 
